In PMC9921564, “Novel Indole-Containing Hybrids Derived from Millepachine: Synthesis, Biological Evaluation and Antitumor Mechanism Study” (Molecules, 2023):

What was measured:
[1] = system: HCT-8/VCR (HCT-8 cell line resistant to vincristine); assay: CCK-8 cytotoxicity, HCT-8/VCR; format: cell-based; conditions: Homo sapiens, 48 h, CCK-8, vincristine-resistant, read-out: IC50, Mean ± SE, HCT-8/VCR
Protocol: (§1) Besides the high cytotoxicity, drug resistance is the other limiting factor of chemotherapeutics. In this study, the cytotoxicities of compound 14b towards five kinds of drug-resistant cancer cell lines were also evaluated. Except three kinds of cell lines that are resistant to three drugs commonly used in clinical practice, two kinds of cell lines that are resistant to MTAs were also evaluated.
(§2) A549 (non-small-cell-lung cancer cell line), Caski (human epithelial cervical cancer cell line), HepG2 (human liver carcinoma cell line), MCF-7 (human breast carcinoma cell line), C42B (human prostate cancer line C42B), L-02 (human normal hepatocytes), RWPE-1 (human prostate epithelial cells) and MCF-10A (human normal mammary epithelial cells) were obtained from National Collection of Authenticated Cell Cultures (Shanghai, China). […]
(§3) After 24 h, the medium containing different concentrations of tested compounds were added for another 48 h. […] The optical density was recorded with a microplate reader at 570 nm (Thermo Scientific, Varioskan LUX). All the experiments were repeated independently at least three times and the IC50 values were calculated […]

[2] = system: A2780/TAX (A2780 cell line resistant to taxol); assay: CCK-8 cytotoxicity, A2780/TAX; format: cell-based; conditions: Homo sapiens, 48 h, CCK-8, taxol-resistant, read-out: IC50, Mean ± SE, A2780/TAX
Protocol: as §1, §2, §3

[3] = system: A549/CDDP (A549 cell line resistant to cisplatin); assay: CCK-8 cytotoxicity, A549/CDDP; format: cell-based; conditions: Homo sapiens, 48 h, CCK-8, cisplatin-resistant, read-out: IC50, Mean ± SE, A549/CDDP
Protocol: as §1, §2, §3

A549 cells = assay: intracellular microtubule morphology by immunofluorescence; format: cell-based, human; conditions: A549, 10, 20 and 50 nM, 12 h
Protocol: Tubulin–microtubule homeostasis is crucial for cell mitosis.
Figure 2 Effect of compound 14b on tubulin. […] The experiments were performed at least three times, and representative images are shown. Scale bars are 10 μm. […] The backbone of tubulin is shown in ribbon representation (α-tubulin, yellow; β-tubulin, green). […] The data were shown as mean ± SE (standard error) of at least three independent experiments.
S Ⅳ. Biological evaluation methods
The cells grown in logarithmical phase were seeded in 96-well plates with the density of 5×10^3/well.
After 24 h, the medium containing different concentrations of tested compounds were added for another 48 h. Then, CCK-8 reagents were added to cells and continued to culture for 2 h. The optical density was recorded with a microplate reader at 570 nm (Thermo Scientific, Varioskan LUX). All the experiments were repeated independently at least three times and the IC50 values were calculated […]
S2. In vitro tubulin polymerization inhibition assay
The in vitro tubulin polymerization inhibition assay was conducted according to the manufacturer ’s instruction (cytoskeleton, cat. no. BK011P). Briefly, 5 μL of the tested compounds at the indicated

[4] = system: MCF-10A (normal human mammary epithelial cells); assay: CCK-8 cytotoxicity, MCF-10A normal cells; format: cell-based
Text: A549 (non-small-cell-lung cancer cell line), Caski (human epithelial cervical cancer cell line), HepG2 (human liver carcinoma cell line), MCF-7 (human breast carcinoma cell line), C42B (human prostate cancer line C42B), L-02 (human normal hepatocytes), RWPE-1 (human prostate epithelial cells) and MCF-10A (human normal mammary epithelial cells) were obtained from National Collection of Authenticated Cell Cultures (Shanghai, China). A549/CDDP (A549 cell line resistant to cisplatin), C42B/ENZR (C42b cell line resistant to Enzalutamide), MCF-7/DOX (MCF-7 cell line resistant to doxorubicin), A2780/TAX (human ovarian cancer cell line A2780 resistant to taxol) and HCT-8/VCR (human ileocecum carcinoma cell lines HCT-8 resistant to vincristine) were kindly provided by Professor Junjian Wang and Professor Xingshu Li at Sun Yat-Sen University, China. […]
as §3

[5] = system: C42B (human prostate cancer line); assay: CCK-8 antiproliferative assay, C42B; format: cell-based; conditions: 48 h, read-out: IC50, Mean ± SE, C42B
[6] = metabolic stability in human liver microsomes; format: in vitro ADME
Protocol: Metabolic stability is one of the most important properties in drug development. In this study, commercially available human liver microsomes were used to evaluate the metabolic stability of compound 14b. After incubation with human liver microsomes at 37 °C in vitro for an indicated time in a buffer solution containing a NADPH regenerating system, the residue of 14b was monitored by HPLC. CA-4 was used as the reference compound. […] As well known, a short half-life means a low bioavailability in vivo and is required for frequent administration with a high dose, which might result in drug accumulation and may produce related toxicity.

[7] = system: HepG2 (human liver carcinoma cell line); assay: CCK-8 antiproliferative assay, HepG2; format: cell-based; conditions: 48 h, read-out: IC50, Mean ± SE, HepG2
[8] = system: A549 (human non-small-cell-lung cancer cell line); assay: CCK-8 antiproliferative assay, A549; format: cell-based; conditions: 48 h, read-out: IC50, Mean ± SE, A549

SMILES: COc1ccc(C(=O)c2ccc3c(ccn3C)c2)c2c1C=CC(C)(C)O2 [compound 14b, (5-methoxy-2,2-dimethyl-2H-chromen-8-yl)(1-methyl-1H-indol-5-yl)methanone]
- IC50 [1]: 122 ± 36 nM
- IC50 [2]: 42 ± 11 nM
- IC50 [3]: 35 ± 21 nM
- intracellular tubulin-microtubule homeostasis (A549 cells): heavily disturbed
- IC50 ([4]; Homo sapiens, MCF-10A, 48 h, CCK-8, normal cells, read-out: IC50, Mean ± SE, MCF-10A): 6260 ± 311 nM
- Selectivity Ratio ([4]; IC50 MCF-10A / IC50 MCF-7): 231.7
- IC50 [5]: 51 ± 5 nM
- half-life [6]: 3.3 h
- metabolic stability [6]: relatively stable in the liver microsomes
- Remaining% ([6]; 37 °C, NADPH regenerating system, 180 min): 56.17%
- remaining at 0.5 h ([6]; human, liver microsomes, 37 °C, NADPH regenerating system, 30 min): 96.2%
- remaining at 1 h ([6]; human, liver microsomes, 37 °C, NADPH regenerating system, 60 min): 91.4%
- remaining at 1.5 h ([6]; human, liver microsomes, 37 °C, NADPH regenerating system, 90 min): 84.1%
- remaining at 2 h ([6]; human, liver microsomes, 37 °C, NADPH regenerating system, 120 min): 74.5%
- remaining at 2.5 h ([6]; human, liver microsomes, 37 °C, NADPH regenerating system, 150 min): 67.8%
- remaining at 3 h ([6]; human, liver microsomes, 37 °C, NADPH regenerating system, 180 min): 50.6%
- remaining at 4 h ([6]; human, liver microsomes, 37 °C, NADPH regenerating system, 240 min): 43.4%
- IC50 [7]: 74 ± 13 nM
- IC50 [8]: 22 ± 2 nM
